Source: patent US20150183791A1, “IMIDAZO[1,2-b]PYRIDAZINE-BASED COMPOUNDS, COMPOSITIONS COMPRISING THEM, AND METHODS OF THEIR USE” (LEXICON PHARMACEUTICALS, INC., priority 2013, published 2015)
Values belong to the molecule of their own block, whether it stands above or below them.

How the values were obtained:
[1] = target: T1, AAK1 (full length human) transfected with Flag/AP2MI in HEK293F cells; phospho-mu2 (Homo sapiens, UniProt Q2M2I8); experiment: HEK281 cell-based assay; details: HEK293F cells transfected with human AAK1 and AP2M1, 3 hours with compound, phospho-mu2 Western blot normalized to total Mu2
T1 construct: HA; expressed in transfected cells; host or cells: HEK293F
T1 sequence (Q2M2I8 1-863 isoform Q2M2I8-2): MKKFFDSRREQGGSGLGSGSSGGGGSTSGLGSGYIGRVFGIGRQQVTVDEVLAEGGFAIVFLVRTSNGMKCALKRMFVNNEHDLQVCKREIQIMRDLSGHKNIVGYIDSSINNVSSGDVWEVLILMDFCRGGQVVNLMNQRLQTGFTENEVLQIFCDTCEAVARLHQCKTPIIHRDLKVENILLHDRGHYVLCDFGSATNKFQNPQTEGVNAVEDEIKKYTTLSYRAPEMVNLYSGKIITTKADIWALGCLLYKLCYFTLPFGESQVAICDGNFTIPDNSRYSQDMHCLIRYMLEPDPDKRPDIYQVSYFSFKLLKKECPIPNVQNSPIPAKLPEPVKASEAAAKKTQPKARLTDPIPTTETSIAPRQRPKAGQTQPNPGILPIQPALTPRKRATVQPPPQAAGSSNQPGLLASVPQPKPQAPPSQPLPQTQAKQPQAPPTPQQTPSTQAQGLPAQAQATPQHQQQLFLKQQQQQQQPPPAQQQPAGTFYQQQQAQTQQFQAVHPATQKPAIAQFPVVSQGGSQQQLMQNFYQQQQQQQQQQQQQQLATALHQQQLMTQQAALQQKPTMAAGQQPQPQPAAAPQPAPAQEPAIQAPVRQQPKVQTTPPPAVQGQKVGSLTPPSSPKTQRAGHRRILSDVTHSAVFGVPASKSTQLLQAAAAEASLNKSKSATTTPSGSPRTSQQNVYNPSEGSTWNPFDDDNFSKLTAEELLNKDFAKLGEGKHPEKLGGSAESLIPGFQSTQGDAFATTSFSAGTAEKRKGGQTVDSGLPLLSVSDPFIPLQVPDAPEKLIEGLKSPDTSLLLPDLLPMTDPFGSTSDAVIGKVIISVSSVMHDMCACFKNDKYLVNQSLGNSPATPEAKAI
Experimental: HEK293F cells were cultured in media containing DMEM (Gibco, cat. #11965), 10% FBS (SAFC Biosciences, cat. #12103C), 1×GPS (glutamine, penicillin and streptomycin). On day one, cells were plated on a 10 cm dish so that they are ˜80% confluent at time of transfection. Roughly 12 million cells were in a 10 cm dish at time of transfection. On day two, each dish was transfected with 48 ug DNA and 144 ul Lipofectamine 2000 (Invitrogen, cat.#11668-019). The DNA was comprised of a mixture (per 10 cm dish) containing 3 ug AAK1/HA/pIRES (full length human, NCBI accession no. NP_055726.2), 45 μg Flag/AP2MI/pcDNA (full length human), and 1.5 ml OPTI-MEM. The Lipofectamine 2000 is made up of a mixture (per 10 cm dish) containing 144 μl Lipofectamine 2000 and 1.5 ml OPTI-MEM. Each mixture was transferred to individual 15 ml tubes and incubated at room temperature for 5 minutes, and then the two mixes were combined and incubated at room temperature for 20 minutes. Growth media was then aspirated from each 10 cm plate and replaced with 10 ml of DMEM+10% FBS (no GPS). Finally, 3 ml DNA/Lipofectamine mix was added to each 10 cm dish and mix gently followed by incubate of plate overnight at 37° C. and 5% CO2.
On day three, compounds were diluted in 100% DMSO at 1000× final concentration, followed by 3-fold serial dilutions for a total of 5 concentrations tested. Four compounds were tested per 10 cm dish. One ul of each compound dilution was then pipetted into a deep-well, 96-well plate, followed by addition of 500 μl DMEM+0.5% FBS into each well for a 2× final concentration of each compound. Cells were resuspended in a 10 cm dish by simple pipetting (HEK293 cells come off the plate that easy at this point) and then transferred to a 50 ml conical tube and pelleted by centrifugation at 1000 rpm for 5 min. Cell pellets were then resuspended in 2.75 ml DMEM+0.5% FBS per 10 cm dish and 100 μl of cell suspension transferred into each well of 96-well TC plate. Finally, 100 μl of 2× compound diluted in DMEM+0.5% FBS was then added into wells containing cell suspension for a 1× final concentration. Plates were then incubated at 37° C. and 5% CO2 for 3 hours followed by transferring of cell suspensions from each well into 12-tube PCR strips. The PCR strips were spun in a tip rack at 1000 rpm for 5 minutes to pellet cells and media was then removed by pipetting without disturbing the cell pellet.
To prepare for Western Blot analysis, cell pellets were resuspend in 40 ul 1×LDS-PAGE sample buffer (Invitrogen, cat.# NP0008) +2× Halt phophatase and protease inhibitor cocktail (Thermo Scientific, cat.#1861284), followed by sonicating each with microtip sonicator set at 5 for 8-10 seconds. Five ul of 10× NuPage Sample Reducing Agent (with […]) was to each sample followed by heat denaturing at 70 C for 10 min on PCR machine. A total of 10 μl per sample was loaded into each lane of a 4-20% Tris-Glycine Criterion 26-well gel (Biorad, cat.#345-0034) for the phospho-mu2 blot and 10 μl per lane in a 4-12% Bis-Tris (+MES buffer) NuPAGE 26-well gel (Invitrogen, cat.# WG1403BX10) for the mu2 blot. For controls, 2 ng of phospho-mu2 or 20 ng mu2/Flag proteins were loaded in the last well of each gel. After SDS-PAGE, samples on each gel were transferred to PVDF membrane using an iBlot and membranes were blocked for one hour in TBST+5% milk, followed by wash 3× for 5-10 min with TBST. Criterion gels were probed with rabbit anti-phospho-mu2 (1:5000; a rabbit polyclonal antibody produced by New England Peptide and affinity purified at Lexicon) in TBST+5% BSA, whereas, NuPAGE gels were probed with mouse anti-Flag (1:500; Sigma, cat.# F1804) in TBST+5% milk, and these primary antibodies were incubated overnight at 4° C. on a rocker. […]

[2] = target: AAK1 (full-length human protein) (Homo sapiens, UniProt Q2M2I8); experiment: P81 filter plate assay; type: biochemical
Chain of AAK1 (full-length human protein) (Q2M2I8 1-863 isoform Q2M2I8-2): as above
Experimental: Compounds were serially diluted into a Labcyte LDV plate (Labcyte, cat# LP-0200) using a Mutiprobe (PerkinElmer) and Biomek FX (Beckman Coulter) so that the highest compound concentration was at 96 μM. Compounds were then pinged (75 nL per well) into a Greiner 384-well reaction plate (Greiner, #781076) using an ECHO 550 Liquid Handler (Labcyte). A total of 12 μl reaction buffer (IMAP buffer containing Tween and DTT, from Molecular Devices) was then added to each well of columns 1 and 13 for the negative controls and 12 μl of 2×AAK1 (0.2 nM full-length human protein, NCBI accession no. NP_055726.2) was added to the remaining wells. Enzyme was then pre-incubated with compound for 10 minutes at room temperature. Reactions were initiated upon Minitrak (PerkinElmer) addition of 12 μl substrate mix containing 2× Mu2 (0.2 μM, full length human protein), 2× cold ATP (2 μM), and 1.3 μCi of hot ^33P-ATP. Reactions proceeded for one hour at room temperature. Meanwhile, Millipore 384-well P81 filter plates (Millipore, catalog # MZPHN0 W10) were placed on a plate washer (Zoom ZW, from Titertek) and pre-wet with 50 μl 1% phosphoric acid. Kinase reactions were then stopped upon addition of 24 μl of 2% phosphoric acid to each well and the Minitrak was then used to transfer 40 μl from each well into the pre-wet Millipore 384-well P81 filter plates. Reaction mixtures were incubated for 10 minutes at room temperature in the P81 plates, followed by washing five times with 100 μl/well of 1% phosphoric acid using the Zoom filter washer. The bottom of each filter plate was sealed followed by addition of 20 μl Microscint 40 to each well, sealing the top of the plates with Flashplate cover, and then waiting one hour until reading on the TopCount (Perkin Elmer).

[3] = 0.2 nM-scale full-length human AAK1, Mu2 substrate, 33P-ATP, one hour at room temperature, class symbols

IC50 [2, 3]: ≤ 10 nM
SMILES: CC(C)CNC(=O)c1cccc(-c2ccc3ncc(-c4ccc(CN)cc4)n3n2)c1 [3-(3-(4-(Aminomethyl)phenyl)imidazo[1,2-b]pyridazin-6-yl)-N-isobutylbenzamide]
CBA IC50 [1]: ** (“**” means a value of less than or equal to 0.1 μM)

IC50 [2, 3]: ≤ 10 nM
SMILES: CNC(=O)c1ccc(-c2cnc3ccc(-c4cccc(C(=O)NCC(C)C)c4)nn23)cc1 [N-isobutyl-3-(3-(4-(methylcarbamoyl)phenyl)imidazo[1,2-b]pyridazin-6-yl)benzamide]
CBA IC50 [1]: * (“*” means less than or equal to 1.0 μM)

IC50 ([2]; same assay, given as numeric bound instead of class symbol): > 300 nM
SMILES: CC(C)CNC(=O)c1cccc(-c2ccc3ncc(-c4ccncc4)n3n2)c1 [N-isobutyl-3-(3-(pyridin-4-yl)imidazo[1,2-b]pyridazin-6-yl)benzamide]
CBA IC50 [1]: * (“*” means less than or equal to 1.0 μM)

The next lines start with the molecule.

SMILES: CC(C)CCC(=O)c1cccc(-c2ccc3ncc(-c4ccc(CN)cc4)n3n2)c1 [1-(3-(3-(4-(Aminomethyl)phenyl)imidazo[1,2-b]pyridazin-6-yl)phenyl)-4-methylpentan-1-one]
CBA IC50 [1]: ** (“**” means a value of less than or equal to 0.1 μM)
IC50 [2, 3]: ≤ 10 nM

SMILES: CC(=O)c1cccc(-c2ccc3ncc(-c4ccc(CN)cc4)n3n2)c1 [1-(3-(3-(4-(Aminomethyl)phenyl)imidazo[1,2-b]pyridazin-6-yl)phenyl)ethanone]
CBA IC50 [1]: ** (“**” means a value of less than or equal to 0.1 μM)
IC50 [2, 3]: ≤ 10 nM

SMILES: CC(=O)c1cccc(-c2ccc3ncc(Br)n3n2)c1 [1-(3-(3-Bromoimidazo[1,2-b]pyridazin-6-yl)phenyl)ethanone]
CBA IC50 [1]: * (“*” means less than or equal to 1.0 μM)

SMILES: CCCCCc1ccc2ncc(-c3ccc(C(C)=O)s3)n2n1 [1-(5-(6-Pentylimidazo[1,2-b]pyridazin-3-yl)thiophen-2-yl)ethanone]
CBA IC50 [1]: * (“*” means less than or equal to 1.0 μM)

SMILES: CC(=O)c1cccc(-c2ccc3ncc(-c4ccc(C(N)=O)cc4)n3n2)c1 [4-(6-(3-Acetylphenyl)imidazo[1,2-b]pyridazin-3-yl)benzamide]
CBA IC50 [1]: * (“*” means less than or equal to 1.0 μM)

SMILES: CC(=O)c1ccc(-c2cnc3ccc(-c4ccc(C#N)cc4)nn23)s1 [4-[3-(5-Acetyl-thiophen-2-yl)-imidazo[1,2-b]pyridazin-6-yl]-benzonitrile]
CBA IC50 [1]: * (“*” means less than or equal to 1.0 μM)

SMILES: CC(C)CNC(=O)c1cncc(-c2ccc3ncc(-c4ccc(CN)cc4)n3n2)c1 [5-(3-(4-(Aminomethyl)phenyl)imidazo[1,2-b]pyridazin-6-yl)-N-isobutylnicotinamide]
CBA IC50 [1]: ** (“**” means a value of less than or equal to 0.1 μM)
IC50 [2, 3]: ≤ 10 nM

SMILES: COc1cnccc1-c1cnc2ccc(-c3cccc(C(=O)NCC(C)C)c3)nn12 [N-isobutyl-3-(3-(3-methoxypyridin-4-yl)imidazo[1,2-b]pyridazin-6-yl)benzamide]
CBA IC50 [1]: * (“*” means less than or equal to 1.0 μM)
IC50 [2, 3]: ≤ 10 nM
